According to publication PMC1238745, “A Surface Groove Essential for Viral Bcl-2 Function During Chronic Infection In Vivo” (PLoS Pathogens, 2005):
Ends that are not written are not given here.

Key:
[1] = target: T1, γHV68 v-Bcl-2 (wild-type) (Murid herpesvirus 4, UniProt P89884); assay: NMR titration of BH3 peptides with wild-type γHV68 v-Bcl-2; type: binding, murine γ-herpesvirus 68; conditions: 303 K; for binding over the concentration range of the titration: pH 7.8, peptide up to 320 μM
T1 construct: we expressed amino acids 1–137 of the v-Bcl-2, removing the carboxy-terminal hydrophobic domain; made in house; host or cells: E. coli BL21(DE3)
Experimental: (§1) Wild-type and SGR/AAA v-Bcl-2 used in NMR studies were expressed in E. coli BL21(DE3) strain grown on M9 media. For wild-type v-Bcl-2, uniformly ^15N-labeled, uniformly ^15N,^13C-labeled, and uniformly ^15N,^13C-labeled, 75% ^2H samples were prepared with media containing either ^15NH4Cl, ^15NH4Cl plus [U-^13C]glucose or ^15NH4Cl, [U-^13C]glucose, and 75% ^2H2O, respectively. For SGR/AAA v-Bcl-2, a ^15N-labeled sample was prepared with media containing ^15NH4Cl as the sole nitrogen source. Soluble protein was purified by Ni^2+-affinity chromatography. NMR samples contained 0.5–1.0 mM protein in either 90% H2O with 10% ^2H2O or 100% ^2H2O, 20 mM ^2H-TRIS (pH 7.8), and 5 mM ^2H-dithiothreitol.
(§2) All NMR experiments were acquired at 303 K on a Bruker DRX500, DRX600 or DRX800 NMR spectrometer. […] Side-chain ^1H and ^13C NMR signals were assigned from HCCH-TOCSY experiments. Stereospecific assignments of valine and leucine methyl groups were obtained from an analysis of the ^13C-^13C coupling patterns observed for biosynthetically directed, fractionally ^13C-labeled γHV68 v-Bcl-2 [87]. NOE distance restraints were obtained from three-dimensional ^15N- and ^13C-edited NOESY spectra acquired with a mixing time of 80 ms. Slowly exchanging amide protons were identified in an ^15N-HSQC spectrum recorded immediately after exchanging the protein into a buffer prepared with ^2H2O.
(§3) Binding of the Bak 16-mer ([…]), the Bax 16-mer ([…]), the Bad 25-mer ([…]), and a D83A mutant Bak 16-mer ([…]) to wild-type v-Bcl-2, and binding of the Bax 16-mer to SGR/AAA v-Bcl-2 was assessed by NMR titration. Each peptide was titrated from a concentrated stock solution into a sample of ^13C-labeled protein, and binding was monitored from changes in a ^13C methyl-HSQC spectrum. For wild-type v-Bcl-2, ^13C-HSQC spectra were recorded on a uniformly ^13C,^15N-labeled protein sample (120 μM) in the presence of increasing amounts of peptide (40, 80, 160, 240, and 320 μM). For SGR/AAA v-Bcl-2, ^15N-HSQC spectra were recorded on a sample of uniformly ^15N-labeled protein in the presence of increasing amounts of peptide.

[2] = system: Bcl-xL; conditions: vs Bak peptide; no reference in the sentence, preceding paragraph cites ref [53]; cited from earlier work
[3] = system: KSHV v-Bcl-2; conditions: ref [9]; cited from earlier work
Source text: Each of these proteins interacts with BH3 peptides from Bak and Bax, but the viral proteins differ from the host proteins in their inability to bind the Bad BH3 peptide. […] In this property, the γHV68 and KSHV v-Bcl-2 proteins resemble cellular Mcl-1, which also fails to bind Bad BH3 peptide and is important for development of B cells, one of the cell types in which γHV68 establishes latency. One possible explanation for the lack of binding to the Bad BH3 peptide is that v-Bcl-2 binding to Bad is detrimental to the virus. Bad was recently found to be essential for assembly of a holoenzyme tha ...

[4] = target: T2, γHV68 v-Bcl-2 (wild-type) (Murid herpesvirus 4, UniProt P89884); assay: NMR titration of BH3 peptides with wild-type γHV68 v-Bcl-2; type: binding, murine γ-herpesvirus 68; conditions: changes in 13C methyl-HSQC spectrum, 120 μM 13C,15N-labeled protein, peptide 40, 80, 160, 240, and 320 μM, 20 mM 2H-TRIS pH 7.8, 5 mM 2H-dithiothreitol, 303 K
T2 construct: we expressed amino acids 1–137 of the v-Bcl-2, removing the carboxy-terminal hydrophobic domain; made in house; host or cells: E. coli BL21(DE3)
T2 sequence (P89884 whole entry, looked up): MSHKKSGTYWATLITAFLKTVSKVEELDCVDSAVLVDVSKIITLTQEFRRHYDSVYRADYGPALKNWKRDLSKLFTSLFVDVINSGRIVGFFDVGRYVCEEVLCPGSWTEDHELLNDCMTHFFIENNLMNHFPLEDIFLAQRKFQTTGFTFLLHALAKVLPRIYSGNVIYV
Experimental: as §1, §2, §3

[5] = system: Mcl-1; conditions: ref [70],[71]; cited from earlier work
Source text: In this property, the γHV68 and KSHV v-Bcl-2 proteins resemble cellular Mcl-1, which also fails to bind Bad BH3 peptide and is important for development of B cells, one of the cell types in which γHV68 establishes latency. One possible explanation for the lack of binding to the Bad BH3 peptide is that v-Bcl-2 binding to Bad is detrimental to the virus. Bad was recently found to be essential for assembly of a holoenzyme tha ...

[6] = target: Bcl-2 and Bcl-xL; conditions: Bad BH3 peptide; ref [9]; read-out: affinity; cited from earlier work

Row | Sequence | binding over the concentration range of the titration [1] | Kd ([1]; changes in 13C methyl-HSQC spectrum, 120 μM 13C,15N-labeled protein, peptide 40, 80, 160, 240, and 320 μM, 20 mM 2H-TRIS pH 7.8, 5 mM 2H-dithiothreitol) [µM] | fold reduction of affinity for Bcl-xL by D83A mutation [2] | exchange with γHV68 v-Bcl-2 on the NMR timescale ([1]; pH 7.8) | binding to KSHV v-Bcl-2 [3] | Kd [4] [µM] | binding of Bad BH3 peptide to Mcl-1 [5] | Kd [6] [µM]
1 | GQVGRQLAIIGADINR [D83A mutant Bak peptide] | no binding | > 300 | more than 120 fold |  |  |  |  | 
2 | KKLSECLKRIGDELDS [Bax peptide] |  |  |  | slow exchange | interacts |  |  | 
3 | NLWAAQRYGRELRRMSDEFVSFKK [Bad BH3 peptide, Bad 25-mer ([…]), BH3 peptide from proapoptotic Bad] | bound weakly |  |  |  | much lower affinity than is observed for Bcl-2 or Bcl-xL | > 300 | fails to bind | 0.0006 to 0.015
